Measured values from BindingDB's records for doi:10.1124/jpet.104.068320 (Actelion Pharmaceuticals, 2004).

Target: T1, Urotensin-2 receptor (Rattus norvegicus, UniProt P49684)
T1 sequence (P49684 whole entry): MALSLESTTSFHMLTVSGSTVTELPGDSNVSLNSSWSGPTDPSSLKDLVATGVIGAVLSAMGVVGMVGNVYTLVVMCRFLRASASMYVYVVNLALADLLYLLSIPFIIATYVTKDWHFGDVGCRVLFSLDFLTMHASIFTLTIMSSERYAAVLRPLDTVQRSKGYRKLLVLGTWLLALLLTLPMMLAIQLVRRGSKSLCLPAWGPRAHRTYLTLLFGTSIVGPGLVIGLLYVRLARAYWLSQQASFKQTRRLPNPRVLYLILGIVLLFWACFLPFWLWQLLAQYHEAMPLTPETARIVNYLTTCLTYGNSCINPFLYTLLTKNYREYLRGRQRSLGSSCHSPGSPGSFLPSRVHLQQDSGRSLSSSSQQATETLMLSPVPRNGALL

Q: `Cc1cc(NC(=O)NCCN2CCC(O)(Cc3ccccc3)CC2)c2ccccc2n1` [ACT-058362] was tested. Which Ki did it give?
A: 1.47 µM
